# Measurements reported in ChEMBL document CHEMBL3301361, “Experimental in vitro DMPK and physicochemical data on a set of publicly disclosed compounds”.
# Tests used:
# physchem [1] = conditions: pH 7.4 buffer
# physchem [2] = conditions: octan-1-ol/water
Structure (SMILES),solubility thermodynamic (physchem [1]) [µM],other results
N=C(N)c1ccc2cc(C(=O)Nc3ccc(CN)cc3)cc(Nc3ncccn3)c2c1,151,
CCn1cnc(-c2ccccc2)c1-c1nc2c(N)ncnc2s1,170,
CSc1nc(N)n2nc(-c3ccco3)nc2n1,151,
O=C(NNC(=O)c1ccccc1)c1ccccc1,182,
O=C(c1ccc(F)cc1)C1CCN(C(=O)c2ccccc2)CC1,200,
N#Cc1ccccc1C(=O)N1CCC(C(=O)c2ccc(F)cc2)CC1,135,
c1ccc2oc(-c3cncc(-c4cnn(C5CCNCC5)c4)c3)nc2c1,87.1,
Nc1nccc(/C=C/c2ccccc2)n1,190,
O=C(O)CCC[C@@H]1c2ccccc2C[C@H]1NC(=O)c1cc2cc(F)ccc2[nH]1,85.1,
COc1ccc(NC(=O)c2cc(C)no2)cc1,158,
Cc1ccccc1C(=O)Nc1ccccc1,186,
O=C(O)c1cc2ccc(F)cc2n1Cc1ccc(Cl)c(Cl)c1,182,
O=C(NNc1nc2ccccc2o1)c1ccccc1,129,
Cc1cnc(NC(=O)c2ccccn2)s1,200,
O=C(NC1CCN(C(=O)c2cccs2)CC1)c1ccccc1,166,
CNC(=O)[C@@H](NC(=O)[C@H](CC(C)C)[C@@H](Sc1ccccc1)C(=O)NO)C(C)(C)C,83.2,
O=C(c1ccccc1)N1CCc2ccccc21,91.2,
O=C(Nc1ccccc1)N1CCN(c2ccccn2)CC1,170,
O=C(Nc1ccccc1C(F)(F)F)N1CCN(c2ccccn2)CC1,190,
COc1cc(S(N)(=O)=O)c(OC)cc1N,93.3,
COc1ccc(C(=O)Nc2nccs2)cc1OC,132,
Oc1ncnc2c1cnn2Cc1ccccc1,158,
O=S(=O)(NCc1ccccc1)c1cccc2nonc12,141,
O=C(NCc1ccccc1)c1ccc(=O)oc1,135,

Structure (SMILES),solubility thermodynamic (physchem [1]) [µM],other results
COCC(C)(C)Oc1cc(O[C@@H](C)Cc2ccccc2)cc(C(=O)Nc2ccc(C(=O)O)cn2)c1,190,
C[C@@H](Cc1ccccc1)Oc1cc(OC2CCOCC2)cc(C(=O)Nc2ccc(C(=O)O)cn2)c1,105,
COc1cc(OC2CNC2)ccc1Nc1ncc(Cl)c(-c2cnc3ccccn23)n1,81.3,
Nc1c2c(O)nc(O)cc2nn1-c1ccccc1,178,
COc1cccc(NC(=O)Cn2cc(Oc3ncnc4cc(OC)c(OCCN5CCCCC5)cc34)cn2)c1,141,
CC[C@@H](C)NC(=O)c1ccc(Oc2ccc(C#C[C@]3(O)CN4CCC3CC4)cc2)cc1,112,
CCN(C(=O)Cc1ccc(S(C)(=O)=O)cc1)C1CCN(CCC(c2ccccc2)N2CCN(c3cccc(F)c3)CC2)CC1 (stereo unspecified),144,
COc1ccc(Nc2ncnc3cccc(OC4CCN(C)CC4)c23)cc1Cl,87.1,
CNC(=O)c1ccc(CC(=O)N(C)C2CCN(Cc3ccc(C(F)(F)F)cc3)CC2)cc1,107,
CN(C(=O)Cc1ccc(-n2cnnn2)cc1)C1CCN(Cc2ccc(C(F)(F)F)nc2)CC1,182,
CN(C(=O)Cc1ccc(-n2cnnn2)cc1)[C@@H]1CCN(Cc2ccc(C(F)(F)F)nc2)C[C@@H]1F,95.5,
C[C@H]1COCCN1c1cc(CS(C)(=O)=O)nc(-c2ccc3[nH]ccc3c2)n1,190,
O=C(Nc1ccc(Cl)c(Cl)c1)N1CCN(C[C@@H]2CCCN(CCCc3ccccc3)C2)CC1,144,
N#CC1(NC(=O)[C@@H]2CCCC[C@H]2C(=O)N2CCN(c3nc(-c4ccccc4)cs3)CC2)CC1,95.5,
CC(C)Oc1cc(O[C@H](C)c2ccccc2)cc(C(=O)Nc2ccc(C(=O)O)cn2)c1,112,
O=C(Cc1cc(Nc2ncnc3cc(OCCCN4CCC[C@@H]4CO)ccc23)[nH]n1)Nc1cccc(F)c1,102,
CCN(CCO)CCCOc1ccc2c(Nc3cc(CC(=O)Nc4cccc(F)c4F)[nH]n3)ncnc2c1,93.3,
CCCN(CCO)CCCOc1ccc2c(Nc3cc(CC(=O)Nc4cccc(F)c4)[nH]n3)ncnc2c1,112,
N#CC1(NC(=O)[C@@H]2CCCC[C@H]2C(=O)N2CCc3[nH]c4c(C(F)(F)F)cccc4c3C2)CC1,144,
N#CC1(NC(=O)[C@@H]2CCCC[C@H]2C(=O)N2CCc3[nH]c4c(OC(F)(F)F)cccc4c3C2)CC1,123,
N#CC1(NC(=O)[C@@H]2CCCC[C@H]2C(=O)N2CCc3[nH]c4ccc(Cl)cc4c3C2)CC1,129,
CC(C)c1ccc2[nH]c3c(c2c1)CN(C(=O)[C@@H]1CCCC[C@H]1C(=O)NC1(C#N)CC1)CC3,83.2,
CN(C)C(=O)c1cc(-c2nc(N3CCOCC3)cc(C3(S(C)(=O)=O)CC3)n2)c2cc[nH]c2c1,100,
CC(=O)N1CCN(CCOc2ccc(C3(O)CCN(c4ccc5nnc(C(F)(F)F)n5n4)CC3)cc2)CC1,170,

Structure (SMILES),solubility thermodynamic (physchem [1]) [µM],other results
Cc1cc(C)cc(-c2[nH]c3sc(C(C)(C)C(=O)N4C5CCC4CC5)cc3c2CCN2CCC(CNC(=O)N3CCOCC3)CC2)c1,112,
Cc1cc(C)cc(-c2[nH]c3sc(C(C)(C)C(=O)N4C5CCC4CC5)cc3c2CCN2CCC(C(=O)N3CCCC(O)C3)CC2)c1 (stereo unspecified),87.1,
Nc1ccccc1NC(=O)c1ccc(N2CCOCC2)cc1,182,
C[C@@H](Oc1cccc2ncnc(Nc3ccc4c(cnn4Cc4ccccn4)c3)c12)C(=O)N1CCCC1,110,
c1ccc(Nc2ncnc3ccccc23)cc1,132,
COc1ccc(Cn2c(CCc3c[nH]c4ccccc34)nnc2[C@@H](Cc2c[nH]c3ccccc23)NC(=O)C(C)(C)N)cc1,182,
COc1cc2ncnc(Nc3cccc(Cl)c3F)c2cc1CN(C)C1CCNC1=O (stereo unspecified),89.1,
CC(C)Oc1cc(O[C@@H](C)c2ccccc2)cc(C(=O)Nc2ccc(C(=O)O)cn2)c1,89.1,
COCCN(Cc1cc2c(Nc3cccc(Cl)c3F)ncnc2cc1OC)[C@@H](C)C(N)=O,166,
c1ccc(CSc2ncnc3[nH]cnc23)cc1,95.5,
CC(=O)NC1CCN(C(=O)CN2CCN(CCc3c(-c4cc(C)cc(C)c4)[nH]c4sc(C(C)(C)C(=O)N5C6CCC5CC6)cc34)CC2)C1 (stereo unspecified),107,
Nc1ccccc1NC(=O)c1ccc(C2CCN(CCC(=O)Nc3ccccc3F)CC2)cc1,112,
C[C@H](Oc1cccc2ncnc(Nc3ccc4c(cnn4Cc4ccccn4)c3)c12)C(=O)N1CCOCC1,166,
COc1cc2c(Nc3cc(CC(=O)Nc4cccc(F)c4)[nH]n3)ncnc2cc1OCCCN1CCC[C@@H]1CO,162,
Cc1ccc(/C=C2\SC(=O)NC2=O)cc1,85.1,
CC(=O)NC1CN(c2ccc(Nc3ncc(F)c(-c4cnc(C)n4C(C)C)n3)cc2)C1,120,
Cc1ncc(-c2nc(Nc3ccc(N4CCN(C(=O)CO)CC4)cc3)ncc2F)n1C(C)C,158,
CCN(CC)C(=O)C(C)(C)c1ccc2[nH]c(-c3cc(C)cc(C)c3)c(CCNCCCCc3ccncc3)c2c1,141,
CN(C)CCNS(=O)(=O)c1ccc(Nc2nccc(-c3cnc4cccnn34)n2)cc1,93.3,
N=C1S/C(=C/c2ccco2)C(=O)N1c1nccs1,182,
Cc1ncc(-c2nc(Nc3ccc(N4CCOCC4)cc3)ncc2F)n1C(C)C,118,
CN(C)CCCNS(=O)(=O)c1ccc(Nc2nccc(-c3cnc4cccnn34)n2)cc1,158,
Cn1nc(C(C)(C)C)cc1C(=O)N[C@@H](Cc1cccc(Cl)c1)C(=O)NCC#N,93.3,
CCOC(=O)c1cc2ccccc2[nH]1,89.1,

Structure (SMILES),solubility thermodynamic (physchem [1]) [µM],other results
CN(C/C=C/C#CC(C)(C)C)Cc1cccc2ccccc12 [TERBINAFINE],,"logD (physchem [2]; pH 7.4, LogD7.4): 2.83"
CCN(CC)C(=O)N[C@H]1C[C@@H]2c3cccc4[nH]cc(c34)C[C@H]2N(C)C1 [TERGURIDE],,logD (physchem [2]; pH 7.4): 2.73
CCCCNc1ccc(C(=O)OCCN(C)C)cc1 [TETRACAINE],,"logD (physchem [2]; pH 7.4, LogD7.4): 2.11"
c1ccc2[nH]c(-c3cscn3)nc2c1 [THIABENDAZOLE],,"logD (physchem [2]; pH 7.4, LogD7.4): 2.35"
S=C(NC1CCCCC1)N1CCC(c2cnc[nH]2)CC1 [THIOPERAMIDE],,logD (physchem [2]; pH 7.4): 2.3
Clc1ccccc1CN1CCc2sccc2C1 [TICLOPIDINE],,"logD (physchem [2]; pH 7.4, LogD7.4): 3.46"
Cc1cccc(C)c1NC(=O)C(C)N (stereo unspecified) [TOCAINIDE],,"logD (physchem [2]; pH 7.4, LogD7.4): -0.15"
Cc1ccc(C(=O)c2cc(O)c(O)c([N+](=O)[O-])c2)cc1 [TOLCAPONE],,"logD (physchem [2]; pH 7.4, LogD7.4): 0.74"
Cc1ccc(C(=O)C(C)CN2CCCCC2)cc1 (stereo unspecified) [TOLPERISONE],,"logD (physchem [2]; pH 7.4, LogD7.4): 1.65"
Cc1cccc(Nc2ccncc2S(=O)(=O)NC(=O)NC(C)C)c1 [TORSEMIDE],,"logD (physchem [2]; pH 7.4, LogD7.4): 0.3"
OC(CCN1CCCCC1)(c1ccccc1)C1CCCCC1 (stereo unspecified) [TRIHEXYPHENIDYL],,"logD (physchem [2]; pH 7.4, LogD7.4): 2.68"
CCC(COC(=O)c1cc(OC)c(OC)c(OC)c1)(c1ccccc1)N(C)C (stereo unspecified) [TRIMEBUTINE],,logD (physchem [2]; pH 7.4): 3.77
COc1cc(C(=O)NCc2ccc(OCCN(C)C)cc2)cc(OC)c1OC [TRIMETHOBENZAMIDE],,"logD (physchem [2]; pH 7.4, LogD7.4): 0.74"
Cc1cc2cc3c(C)cc(=O)oc3c(C)c2o1 [TRIOXSALEN],,"logD (physchem [2]; pH 7.4, LogD7.4): 3.47"
CN(C)CCN(Cc1ccccc1)c1ccccn1 [TRIPELENNAMINE],,"logD (physchem [2]; pH 7.4, LogD7.4): 1.28"
N[C@@H](Cc1c[nH]c2ccccc12)C(=O)O [TRYPTOPHAN],,"logD (physchem [2]; pH 7.4, LogD7.4): -1.08"
CC(C)[C@H](N)C(=O)OCCOCn1cnc2c(=O)[nH]c(N)nc21 [VALACYCLOVIR],,logD (physchem [2]; pH 7.4): -1.3
COC[C@@H](c1ccc(C(F)(F)F)cc1)N1CCN(C2(C)CCN(C(=O)c3c(C)ncnc3C)CC2)C[C@@H]1C [VICRIVIROC],,"logD (physchem [2]; pH 7.4, LogD7.4): 2.7"
CS(=O)(=O)c1ccc(C(=O)Nc2ccc(Cl)c(-c3ccccn3)c2)c(Cl)c1 [VISMODEGIB],,"logD (physchem [2]; pH 7.4, LogD7.4): 2.84"
Fc1ccc(-c2ncn(C3CCNCC3)c2-c2ccncc2)cc1 [VK-19911],,"logD (physchem [2]; pH 7.4, LogD7.4): 0.3"
COc1cccc([C@H](O)C2CCN(CCc3ccc(F)cc3)CC2)c1OC [VOLINANSERIN],,"logD (physchem [2]; pH 7.4, LogD7.4): 1.7"
COC(=O)[C@@H]1[C@H]2C[C@H]3c4[nH]c5ccccc5c4CCN3C[C@@H]2CC[C@@H]1O [YOHIMBINE],,"logD (physchem [2]; pH 7.4, LogD7.4): 1.65"
NS(=O)(=O)Cc1noc2ccccc12 [ZONISAMIDE],,"logD (physchem [2]; pH 7.4, LogD7.4): 0.55"
CN1CCN(C(=O)OC2c3nccnc3C(=O)N2c2ccc(Cl)cn2)CC1 (stereo unspecified) [ZOPICLONE],,logD (physchem [2]; pH 7.4): 1.1
